# In patent US20100292255A1, “Therapeutic Compounds and Their Use in Treating Diseases and Disorders” (Myriad Pharmaceuticals, Inc., priority 2007, published 2010):
# Test system: T1, purified human Hsp90
# T1 construct: purified human Hsp90 (Stressgen, SPP-770)
# Assay: Hsp90 binding assay: displacement of BODIPY-labeled geldanamycin measured by fluorescence polarization
# Conditions: 5 μM compound; BODIPY-GM 10 nM, Hsp90 30 nM, overnight at room temperature
# Procedure, shortened: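 Purified human Hsp90 at 30 nM and 10 nM BODIPY-GM tracer were incubated overnight at room temperature with compound in 2% DMSO. The buffer was 20 mM HEPES-KOH pH 7.3, 50 mM KCl, 5 mM MgCl2, 20 mM Na2MoO4, 2 mM DTT. Background-subtracted mP values read at 485/530 nm were normalized to DMSO wells to give % inhibition.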
row,GM displacement from purified Hsp90 measured by FP Inhibition by 5 μM compd. (%),Structure (SMILES)
1,38.0,"CS(=O)(=O)N1CCCC(CCn2cnc(N)c3nc(Sc4cc5c(cc4Br)OCCO5)nc2-3)C1 (stereo not drawn) [compound 13, 8-[(7-Bromo-2,3-dihydro-1,4-benzodioxin-6-yl)thio]-3-{2-[1-(methylsulfonyl)piperidin-3-yl]ethyl}-3H-purin-6-amine]"
2,73.0,"CCCN1CCCCC1CCn1cnc(N)c2nc(Sc3cc4c(cc3Br)OCCO4)nc1-2 (stereo not drawn) [compound 16, 8-[(7-Bromo-2,3-dihydro-1,4-benzodioxin-6-yl)thio]-3-[2-(1-propylpiperidin-2-yl)ethyl]-3H-purin-6-amine]"
3,33.0,"CS(=O)(=O)N1CCC(CCn2cnc(N)c3nc(Sc4cc5c(cc4Br)OCCO5)nc2-3)CC1 [compound 17, 8-[(7-Bromo-2,3-dihydro-1,4-benzodioxin-6-yl)thio]-3-{2-[1-(methylsulfonyl)piperidin-4-yl]ethyl}-3H-purin-6-amine]"
4,10.0,"COc1ccc(Br)c(Sc2nc3c(N)ncn(CCC4CCN(C(C)=O)CC4)c-3n2)c1 [compound 19, 3-[2-(1-Acetylpiperidin-4-yl)ethyl]-8-[(2-bromo-5-methoxyphenyl)thio]-3H-purin-6-amine]"
5,46.0,"Cn1nnnc1N1CCC(CCn2cnc(N)c3nc(Sc4cc5c(cc4Br)OCCO5)nc2-3)CC1 [compound 22, 8-[(7-Bromo-2,3-dihydro-1,4-benzodioxin-6-yl)thio]-3-{2-[1-(1-methyl-1H-tetrazol-5-yl)piperidin-4-yl]ethyl}-3H-purin-6-amine]"
6,28.0,"CC(C)C(=O)N1CCC(CCn2cnc(N)c3nc(Sc4cc5c(cc4Br)OCCO5)nc2-3)CC1 [compound 24, 8-[(7-Bromo-2,3-dihydro-1,4-benzodioxin-6-yl)thio]-342-(1-isobutyrylpiperidin-4-ypethyl]-3H-purin-6-amine]"

# Same assay, conditions: BODIPY-GM 10 nM, Hsp90 30 nM, overnight at room temperature; read-out: GM displacement from purified Hsp90 measured by FP IC 50
row,IC50 [nM],Structure (SMILES)
1,70,"COCC(=O)N1CCC(CCn2c(Sc3cc4c(cc3Br)OCCO4)nc3c(N)ncnc32)CC1 [compound 6, 8-[(7-Bromo-2,3-dihydro-1,4-benzodioxin-6-yl)thio]-9-{2-[1-(methoxyacetyl)piperidin-4-yl]ethyl}-9H-purin-6-amine]"
2,95,"CO[C@H](C)C(=O)N1CCC(CCn2c(Sc3cc4c(cc3Br)OCCO4)nc3c(N)ncnc32)CC1 [compound 7, 8-[(7-Bromo-2,3-dihydro-1,4-benzodioxin-6-yl)thio]-9-(2-{1-[(2R)-2-methoxypropanoyl]piperidin-4-yl}ethyl)-9H-purin-6-amine]"
3,90,"Nc1ncnc2c1nc(Sc1cc3c(cc1Br)OCCO3)n2CCC1CCN(C(=O)C2CC2(F)F)CC1 (stereo not drawn) [compound 8, 8-[(7-Bromo-2,3-dihydro-1,4-benzodioxin-6-yl)thio]-9-(2-{1-[(2,2-difluorocyclopropyl)carbonyl]piperidin-4-yl}ethyl)-9H-purin-6-amine]"
4,160,"CS(=O)(=O)N1CCCCC1CCn1c(Sc2cc3c(cc2Br)OCCO3)nc2c(N)ncnc21 (stereo not drawn) [compound 10, 8-[(7-Bromo-2,3-dihydro-1,4-benzodioxin-6-yl)thio]-9-{2-[1-(methylsulfonyl)piperidin-2-yl]ethyl}-9H-purin-6-amine]"
5,65,"CS(=O)(=O)N1CCCC(CCn2c(Sc3cc4c(cc3Br)OCCO4)nc3c(N)ncnc32)C1 (stereo not drawn) [compound 12, 8-[(7-Bromo-2,3-dihydro-1,4-benzodioxin-6-yl)thio]-9-{2-[1-(methylsulfonyl)piperidin-3-yl]ethyl}-9H-purin-6-amine]"
6,195,"CC(C)C(=O)N1CCC(CCn2c(Sc3cc4c(cc3Br)OCCO4)nc3c(N)ncnc32)CC1 [compound 23, 8-[(7-Bromo-2,3-dihydro-1,4-benzodioxin-6-yl)thio]-9-[2-(1-isobutyrylpiperidin-4-yl)ethyl]-9H-purin-6-amine]"
